Source: US5608095A, “Alkyl-4-silyl-phenols and esters thereof as antiatherosclerotic agents” (Hoechst Marion Roussel, Inc., priority 1996, dated 1997)
Like-named read-outs stand apart in the source and are kept apart here.

Legend:
[1] = Clinical chemistries in serum of rats; type: in vivo, male Sprague-Dawley rats; details: for response vs control in vivo at 0.3 % / response vs control in vivo at 0.1 %: po, 96 h
Description: (§1) A typical experiment consisted of 4-6 groups of rats (N=5 per group) with 1 group being a control which received no MDL compound and the other groups being treated with 0.3% MDL compound. Some of the compounds were either repeated at 0.3% or evaluated again at the lower dose of 0.1%. Male Sprague-Dawley rats, 50-100 g, (Harlan Laboratories, Indianapolis, Ind.) were housed in groups of 5, fed ad libitum water and Purina Rodent chow (#5002) with or without MDL compound as a dietary admixture for 4 days. Dietary admixtures (0.3%) were made by mixing 1.2 grams of an MDL compound with 400 grams of Purina rodent chow (#5002). The MDL compound was mixed with approximately 50 grams of food using a mortar and pestle. This was added to the remainder of the food and mixed for 3 hours on a rotary mixer. In the morning of day 5, non-fasted rats were anesthetized with carbon dioxide, and blood was collected by cardiac puncture. Rats were sacrificed by cervical dislocation. Body weights and liver weights were recorded in grams. Food consumption was recorded as grams.cndot.day^-1.cndot.rat^-1. Deaths were recorded as mortality. Aliquots of fresh serum were used for clinical chemistries, thiobarbituric acid reactive substances (TBARS) and conjugated diene measurements. Aliquots of serum (~0.5mL) and whole livers were frozen at -20° C. for compound and metabolite concentration determination at a later time.
Blood was allowed to clot at room temperature for 30 minutes. Serum was obtained after centrifugation for 10 min at 4° C. at 3000 rpm in a Beckman J-6M/E centrifuge with a JS-4.2 rotor. Fresh serum was analyzed by a COBAS MIRA S autoanalyzer (Roche Diagnostics) using Roche diagnostic reagents for the following clinical chemistry measurements: alkaline phosphatase (ALP, kit #44553), alanine transaminase (ALT, kit #42375), aspartate aminotransferase (AST, kit #42381), total cholesterol (CHOL, kit #44334), triglyceride (TG, kit #44120), and glucose (GLU, kit #44558). ALP, ALT, and AST were calculated as units/L. Cholesterol, triglycerides, and glucose were calculated as mg/dL.

[2] = tested on: oxidation of serum lipids; assay: TBARS assay, rat serum; type: in vivo, male Sprague-Dawley rats; details: po, 96 h, read-out: TBARS, percent of control; for response vs control in vivo at 0.1 %: diet 0.1%
Description: as §1
In this assay the oxidation of serum lipids is initiated with CuSO4, resulting in the formation of aldehydes, such as malondialdehyde (MDA). Upon incubation with thiobarbituric acid, the absorbance of the aldehydes can be detected at 530-540 nm. As stated in the previous example, TBARS values which are lower than control serum values indicate the relative ability of a test compound to inhibit the oxidation of lipids in a sample. TBARS were measured as follows: 100 μL of serum were mixed with 400 μL of a 5 mmol CuSO4 solution and incubated at 37° C. for 3 hr. The reactions were stopped by addition of 1.0 mL of 20% trichloroacetic acid. Then 1.0 mL of 0.67% thiobarbituric acid in 0.05N sodium hydroxide was added, mixed, and the samples incubated for 30 min at 90° C. Samples were centrifuged briefly to pellet undissolved material, and the supernatants were transferred to a 96-well microtiter plate. Absorbances were measured at 540 nm using a Biotek model EL311 microplate reader. The nmoles of MDA produced were calculated from a standard curve of 0 to 10 nmoles of MDA prepared from malonaldehyde bis(dimethylacetal). Serum samples from treated rats were compared to serum samples from control rats that received no MDL compound.

[3] = tested on: oxidation of serum lipids; assay: TBARS assay, serum of cholesterol-fed rabbits; type: in vivo, female New Zealand White rabbits; details: Oryctolagus cuniculus, po, rabbit serum, read-out: TBARS, percent of control; for response vs control in vivo at 0.4 %: 168 h, diet 0.4%, 7 days
How it was run: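 Female NZW rabbits ate 0.2% cholesterol chow with 0.4% dietary compound (some 0.26% or 0.6%) for 7 days (14 days at 0.6%); fasted serum was collected. Serum was oxidised with 5 mM CuSO4 solution, 37 °C 5 h, then reacted with thiobarbituric acid at 90 °C for 30 min. MDA nmol came from an A540 standard curve, versus untreated-rabbit serum.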

[4] = Rattus norvegicus, read-out: CHOL (total cholesterol), percent of control
[5] = Rattus norvegicus, read-out: TRIG (triglycerides), percent of control
[6] = rat serum, diet 0.3%, 4 days, read-out: CHOL (total cholesterol), percent of control
[7] = rat serum, diet 0.3%, 4 days, read-out: TRIG (triglycerides), percent of control
[8] = rat serum, diet 0.1%, 4 days, read-out: CHOL (total cholesterol), percent of control
[9] = rat serum, diet 0.1%, 4 days, read-out: TRIG (triglycerides), percent of control

| SMILES | response vs control in vivo at 0.3 % [1, 4] [%] | response vs control in vivo at 0.3 % [1, 5] [%] | ALP (alkaline phosphatase), percent of control ([1]; rat serum, diet 0.3%, 4 days) [%] | ALT (alanine aminotransferase), percent of control ([1]; rat serum, diet 0.3%, 4 days) [%] | AST (aspartate aminotransferase), percent of control ([1]; rat serum, diet 0.3%, 4 days) [%] | GLUC (glucose), percent of control ([1]; rat serum, diet 0.3%, 4 days) [%] | response vs control in vivo at 0.3 % ([2]; Rattus norvegicus) [%] | response vs control in vivo at 0.3 % [1, 6] [%] | response vs control in vivo at 0.3 % [1, 7] [%] | response vs control in vivo at 0.3 % ([2]; rat serum, diet 0.3%, 4 days) [%] | response vs control in vivo at 0.1 % [1, 8] [%] | response vs control in vivo at 0.1 % [1, 9] [%] | ALP (alkaline phosphatase), percent of control ([1]; rat serum, diet 0.1%, 4 days) [%] | ALT (alanine aminotransferase), percent of control ([1]; rat serum, diet 0.1%, 4 days) [%] | AST (aspartate aminotransferase), percent of control ([1]; rat serum, diet 0.1%, 4 days) [%] | GLUC (glucose), percent of control ([1]; rat serum, diet 0.1%, 4 days) [%] | response vs control in vivo at 0.1 % ([2]; rat serum, 4 days) [%] | response vs control in vivo at 0.4 % [3] [%] | response vs control in vivo at 0.6 % ([3]; 336 h, diet 0.6%, 14 days) [%] |
| --- | --- | --- | --- | --- | --- | --- | --- | --- | --- | --- | --- | --- | --- | --- | --- | --- | --- | --- | --- |
| CC(C)(C)c1cc(OC[Si](C)(C)c2ccccc2)cc(C(C)(C)C)c1OC(=O)CCC(=O)O [MDL 103,076, 2,6-Di-t-butyl-4-[(dimethylphenylsilyl)methyloxy]phenol succinic acid ester] | 114 | 77 | 201 | 132 | 99 | 99 | 107 |  |  |  |  |  |  |  |  |  |  |  |  |
| CC(C)(C)c1cc(SC[Si](C)(C)c2ccccc2)cc(C(C)(C)C)c1OC(=O)CCC(=O)O [MDL 103,141, 2,6-Di-t-butyl-4-[(dimethylphenylsilyl)methylthio]phenol sucinic acid ester] | 119 | 47 | 147 | 126 | 120 | 107 | 113 |  |  |  |  |  |  |  |  |  |  |  |  |
| CC(=O)Oc1c(C(C)(C)C)cc(OC[Si](C)(C)c2ccccc2)cc1C(C)(C)C [MDL 103,377, 2,6-Di-t-butyl-4-[(dimethylphenylsilyl)methyloxy]phenol acetic acid ester] |  |  | 147 | 145 | 149 | 102 |  | 93 | 85 | 71 |  |  |  |  |  |  |  |  |  |
| CC(C)(C)c1cc(OC[Si](C)(C)c2ccccc2)ccc1O [MDL 103,491, 2-t-Butyl-4-[(dimethylphenylsilyl)methyloxy]phenol] |  |  | 80 | 127 | 114 | 94 |  | 146 | 131 | 34 | 112 | 92 | 116 | 133 | 94 | 101 | 70 | 32 | 18 |
| CN(C)c1ccc([Si](C)(C)COc2cc(C(C)(C)C)c(O)c(C(C)(C)C)c2)cc1 [MDL 104,556, 2,6-Di-t-butyl-4-[(4-N,N-dimethylaminophenyldimethylsilyl)methyloxy]phenol] |  |  | 112 | 106 | 101 | 113 |  | 119 | 95 | 34 | 96 | 74 | 112 | 125 | 107 | 102 | 61 | 70 |  |
